The subject of data set [1] is tumor cells. The note with it: Karlsson et al. 2013; Yang et al. 2020; cited from earlier work.
For data set [2], the system named is NALM6. The data set can be described thus: Targeted pro-apoptotic small molecule screening with CART19 against NALM6, killing by luminescence at 48 hours. The note with it: drug 100 and 1000 nM with CART19.
Description: Killing of NALM6 cells was quantified at 48 hours by luminescence. Drug screening of pro-apoptotic small molecules was performed with two concentrations (100 and 1000 nM). […] Two concentrations of 29 drugs were used (100 nM and 1000 nM). Killing of NALM6 cells was assessed at 48 hours by luminescence. […] UTD: untransduced T cells; CART19: anti-CD19 CAR T cell; MCL: mantle cell lymphoma; E:T=ratio of effector to target; IAP: Inhibition of apoptosis protein.
CART19 and NALM6 (luciferase+) cells were seeded at a ratio of 0.08E:1T (i.e., 600 CART: 7000 NALM6) per well in 25 μl of growth medium (RPMI1640+10% FBS+1% Pen-strep+1% glutamine) of 384-well Corning 3570 microplate using a Multidrop™ Combi Reagent Dispenser (Thermo Scientific). Following cell seeding, drugs (50 nL) were transferred to assay plates using a 50 nL slotted pin tool (V&P Scientific) and a JANUS Automated Workstation (Perkin Elmer). Compounds/drugs were added to a final concentration of 1 μM in 0.2% DMSO. Columns 1 and 23 were treated with 0.2% DMSO (negative control). […] Luminescence was measured on an EnVision Xcite Multilabel Plate Reader (PerkinElmer), using the ultrasensitive luminescence measurement technology.
In order to screen pro-apoptotic small molecules that can enhance CART cell killing, a targeted screening assay was performed. […] Tumor killing was measured by luminescence at 48 hours.
In data set [3] the test system is CART19-BCL-2(WT). Kind of data set: Cytotoxicity of doxorubicin on CART cells, 24 hours. It is filed as cell-based, human. To be noted: doxorubicin 300 and 1000 nM. The source says:
FIGS. 26A-26H illustrate the finding that increased BCL-2 expression in T cells from CART apheretic products is associated with positive clinical outcomes in lymphoma patients at long term. FIG. 26A is a schematic description of the approach taken to investigate the relationship between the level of BCL-2 and CART's clinical response. RNA was extracted from T cells from apheretic products of 38 lymphoma patients who received CART19 immunotherapy (CTL019, i.e., tisagenleucleucel) in the clinical trial (NCT02030834). Next, BCL-2 mRNA expression was quantified via the nCounter analysis system (NanoString Technologies, Inc, Seattle, WA). FIG. 26B is a volcano plot showing differential gene expression in T cells based on best overall response (CR or NR). […] EGFR: Epidermal growth factor receptor.
Nevertheless, to further investigate the safety profile of this approach, whether CART19-BCL-2(WT) cells are still sensitive to conventional cytotoxic drugs such as chemotherapy (e.g., doxorubicin) was assessed. […] Furthermore, to enhance the safety profile of CART19-BCL-2(WT) cells, a CART suicide system (Paszkiewicz, et al., The Journal of clinical investigation 2016; 126(11):4262-72) was employed by expressing truncated EGFR into CART19-BCL-2(WT).

The test system of data set [4] is MINO, Z-138, MAVER, OCI-Ly18, SU-DHL-4, NALM6, MOLM-14. Kind of data set: CART plus venetoclax or AZD5991 tumor killing, 48 hours. It is filed as cell-based. The note with it: AZD5991 125 nM, with CART19 (CART33 for MOLM-14). On the procedure:
To investigate whether inhibition of MCL-1, another key anti-apoptotic regulator, lead to enhancement of tumor killing, various B-cell malignant (luciferase+) cell lines were co-cultured with either vehicle (DMSO), venetoclax or AZD5991 in the presence of CART19 for 48 hours and change of luminescence intensity was measured to quantify the tumor killing. To test the combination effect of CART/drug in different tumor types, AML cell lines (luciferase positive MOLM-14) were co-cultured with CART33 in the presence of either venetoclax or AZD5991. Tumor killing (%) was calculated using the formula: (sample−maximal tumor growth)/(lysis control−maximal tumor growth)×100. MINO (Venetoclax: 1 nM, AZD5991: 125 nM), Z-138 (Venetoclax: 25 nM, AZD5991: 125 nM), MAVER (Venetoclax: 25 nM, AZD5991: 125 nM), OCI-Ly18 (Venetoclax: 10 nM, AZD5991: 125 nM), SU-DHL-4 (Venetoclax: 500 nM, AZD5991: 125 nM), NALM6 (Venetoclax: 500 nM, AZD5991: 125 nM), MOLM-14 (Venetoclax: 125 nM, AZD5991: 125 nM). […] CART19: anti-CD19 CAR T cell.
CART19 cells were co-cultured with either vehicle (DMSO) or venetoclax and cytotoxicity was measured at 48 hours. […] This effect was further confirmed using primary NHL cells (MCL) (FIG. 1D). […]

Data set [5] concerns CART19. The data set can be described thus: AZD5991 CART cell toxicity, co-culture with irradiated NALM6 for 120 hours. The note with it: 110-10000 nM, E:T 0.25:1. In kind it is cell-based, human. As to the method:
To quantify CART cell toxicity, CART19 was co-cultured with irradiated NALM6 in the presence of either vehicle (DMSO), venetoclax or AZD5991 for 120 hours. After co-culture, samples were stained with anti-CD3 antibody and anti-CAR19 idiotype antibody to distinguish between effector (T cells) and target cells (NALM6). Survival of CART cell were then measured by using flow cytometry. E:T ratio=0.25:1. Concentrations of venetoclax and AZD5991: 110 nM, 330 nM, 1100 nM, 3300 nM and 10000 nM. […] All data represent mean±SD. **P<0.005, *P<0.05. ns: not significant.
To investigate this hypothesis, the expansion and persistence of CART19 cells in the peripheral blood of NSG mice treated with CART19 plus venetoclax or CART19 alone was analyzed using flow cytometry. […] To test whether prolonged exposure to venetoclax leads to CART cell toxicity, an in vitro venetoclax toxicity assay was performed using CART cells manufactured from 8 different T cell donors. […] Of note, the level of toxicity to CART cells varied among the different T cell donors, likely due to different apoptotic priming statuses at baseline. […] In order to discern whether the reduced survival was due to increased apoptosis or reduction of proliferation, the caspase 3/7 activity in CART19 was assessed in the presence or absence of venetoclax. […]

Each structure is given as a SMILES string.

Take `CN(C)CC[C@H](CSc1ccccc1)Nc1ccc(S(=O)(=O)NC(=O)c2ccc(N3CCN(Cc4ccccc4-c4ccc(Cl)cc4)CC3)cc2)cc1[N+](=O)[O-]` [ABT737]: the “CART-mediated tumor killing (literature)” value in data set [1] is given as “significant increase of CART-mediated tumor killing”.
Turning to `CC[C@H](NC(=O)[C@H](C)NC)C(=O)N1C[C@@H](O)C[C@H]1Cc1c(-c2[nH]c3cc(F)ccc3c2C[C@@H]2C[C@H](O)CN2C(=O)[C@H](CC)NC(=O)[C@H](C)NC)[nH]c2cc(F)ccc12` [birinapant], the “Enhancement of CART19 killing / CART cell cytotoxicity” value in data set [2] is “increased CART cell cytotoxicity”.
As for `COc1cccc2c1C(=O)c1c(O)c3c(c(O)c1C2=O)C[C@@](O)(C(=O)CO)C[C@@H]3O[C@H]1C[C@H](N)[C@H](O)[C@H](C)O1` [doxorubicin], the “Elimination of BCL-2-expressing CART cells” value in data set [3] was “fast and effective elimination of CART19-BCL-2(WT)”.
As to `Cc1c2c(nn1C)CSCc1cc(n(C)n1)CSc1cc(c3ccccc3c1)OCCCc1c(C(=O)O)n(C)c3c-2c(Cl)ccc13` [AZD5991], the “Enhancement of tumor killing in presence of CART” value in data set [4] was “venetoclax, but not AZD5991 (MCL-1 inhibitor), leads to enhancement of tumor killing”. Further, the “CART cell toxicity (CART survival)” value in data set [5] is “induces severe CART cell toxicity”.

The record behind these values is patent US20240335539A1, “MODULATION OF BCL-2 TO ENHANCE CHIMERIC ANTIGEN RECEPTOR CANCER IMMUNOTHERAPY EFFICACY” (The Trustees of the University of Pennsylvania, priority 2021, published 2024).
